# Source: patent publication US20180064821A1, “SITE SPECIFIC CURCUMIN-POLYMER MOLECULAR COMPLEXES AND METHODS OF TREATING COLON DISEASES AND INFLAMMATION” (priority 2016, published 2018)
# Where two headings read alike, the source gives them in different places.
# Columns and labels:
# [1] = Aqueous stability of curcumin complexes; assay type: physicochemical; conditions: 37° C.
# Description: At different time intervals (0, 1, 2, 4, 6, 8, 12, 16, 20, 24 h), the samples were collected, centrifuged (20,000 g) and the supernatant was passed through […] filter.
# [2] = tested on: HT29 colo-rectal cancer cells; assay: pH dependent cellular uptake by flow cytometry, HT29; assay type: cell-based, human
# Description: (§1) Briefly, 2×10^5 cells were seeded in 24 well-plates and allowed to adhere for 24 h. […] After 4 h, the cells were washed with PBS, trypsinized, fixed using 4% paraformaldehyde (PFA) and stored at 4° C. until further analysis using flow cytometer. […] Sample acquisition was performed using BD Biosciences FACS LSR Fortessa and data analyzed using FlowJo software (FlowJo LLC).
# [3] = tested on: HCT116 colo-rectal cancer cells; assay: pH dependent cellular uptake by flow cytometry, HCT116; assay type: cell-based, human
# Description: as §1
# [4] = tested on: HT29 human colo-rectal cancer cells; assay: MTT cell viability assay, HT29; assay type: cell-based; conditions: 48 h incubation
# Description: (§2) Following 48 h of incubation, 0.5 mg/ml MTT solution was added to each well, and the cells were incubated for further 4 h at 37° C. After 4 h, 150 μl of DMSO was added to each well and incubated for 1 h at 37° C. to dissolve the formazan crystals. The absorbance was then measured at 570 nm with a reference wavelength of 650 nm using UV-visible spectrophotometer. The results are represented in terms of percentage inhibition of cell proliferation compared to that of vehicle control. The cellular viability was assessed as a percentage of the control by using the following equation.
# [5] = tested on: HCT116 human colo-rectal cancer cells; assay: MTT cell viability assay, HCT116; assay type: cell-based; conditions: 48 h incubation
# Description: as §2
smiles,measurement,setting,value
"COc1cc(/C=C/C(=O)CC(=O)/C=C/c2ccc(O)c(OC)c2)ccc1O [Curcumin, (1E,6E)-1,7-bis(4-hydroxy-3-methoxyphenyl)-1,6-heptadiene-3,5-dione]",initial curcumin present,"[1]; SIF (pH 6.7-6.9) and pH 7.0 buffer with 10% methanol, 24 h",~10%
same,initial curcumin present,"[1]; aqueous buffers with 10% methanol, within 2 h",~30%
same,"Cellular uptake of curcumin, Mean fluorescence intensity","[2]; pH 5.5, 4 h",2704 ± 221
same,"Cellular uptake of curcumin, Mean fluorescence intensity","[2]; pH 7.0, 4 h",2429 ± 247
same,"Cellular uptake of curcumin, Mean fluorescence intensity","[3]; pH 5.5, 4 h",2543 ± 72
same,"Cellular uptake of curcumin, Mean fluorescence intensity","[3]; pH 7.0, 4 h",3514 ± 975
same,IC50,"[4]; listed as Unformulated curcumin at pH 7.0, read-out: IC50 (mean ± SD) In HT29 Cells",> 80 µM
same,IC50,"[4]; Homo sapiens, HT-29, 48 h, read-out: IC50 (mean ± SD) In HT29 Cells",41.8 ± 1.86 µM
same,IC50,"[5]; listed as Unformulated curcumin at pH 7.0, read-out: IC50 (mean ± SD) In HCT116 Cells",> 80 µM
same,IC50,"[5]; listed as curcumin in DMSO, read-out: IC50 (mean ± SD) In HCT116 Cells",18.4 ± 1.94 µM
